This experiment has as its target T1, glucocorticoid receptor (Homo sapiens, UniProt P04150).
T1 construct: expressed in transfected cells
T1 sequence (P04150 524-758 limits assumed): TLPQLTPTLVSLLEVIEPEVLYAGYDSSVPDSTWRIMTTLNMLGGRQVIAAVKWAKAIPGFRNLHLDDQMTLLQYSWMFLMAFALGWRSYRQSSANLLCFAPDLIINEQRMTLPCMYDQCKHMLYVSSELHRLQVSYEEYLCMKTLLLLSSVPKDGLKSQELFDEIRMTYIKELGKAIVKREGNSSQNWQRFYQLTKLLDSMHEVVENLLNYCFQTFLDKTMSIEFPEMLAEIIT
Briefly: Agonistic mode of action on the glucocorticoid receptor (CHO-Gal4/GR luciferase reporter cell line). It is filed as cell-based. The following applies: range class observed in the agonistic assay or the antagonistic assay (CHO-Gal4/GR reporter cells); table does not say which mode applies per example. The source says:
Potential selective glucocorticoid receptor modulators of this intervention can be tested for modulation of the activity of the glucocorticoid receptor using cell-based assays. These assays involve a Chinese hamster ovary (CHO) cell line which contains fragments of the glucocorticoid receptor as well as fusion proteins. The glucocorticoid receptor fragments used are capable of binding the ligand (e.g. beclomethasone) to identify molecules that compete for binding with glucocorticoid receptor ligands. In more detail, the glucocorticoid receptor ligand binding domain is 25 fused to the DNA binding domain (DBD) of the transcriptionfactor GAL4 (GAL4 DBD-GR) and is stably integrated into a CHO cell line containing a GAL4-UAS-Luciferase reporter construct. […] After cell lysis the luminescence that is produced by luciferase after addition of the substrate is detected and EC50 or IC50 values can be calculated. Engagement of molecules which induce gene expression via glucocortocoid receptor binding to the DNA leads to expression of the luciferase gene under the control of the fusion protein GAL4 DBD-GR and therefore to a dose-dependent increase of the luminescence signal. Binding of molecules which repress beclomethasone-induced gene expression of the luciferase gene under the control of the fusion protein GAL4 DBD-GR leads to a dose-dependent reduction of the luminescence signal.
Biological Assays Agonistic Mode of Action on the Glucocorticoid Receptor
The reporter cell line CHO-Gal4/GR consisted of a Chinese hamster ovary (CHO) cell line (Leibniz Institute DSMZ—German Collection of Microorganisms and Cell CuItures GmbH: ACC-110) containing a firefly luciferase gene under the control of the GR ligand binding domain fused to the DNA binding domain (DBD) of GAL4 (GAL4 DBD-GR) stably integrated into CHO cells. This cell line was established by stable transfection of CHO cells with a GAL4-UAS-Luciferase reporter construct. In a subsequent step the ligand binding domain of the GR cloned into pIRES2-EGFP-GAL4 containing the DNA binding domain of GAL4 from pFA-AT2 was transfected. This fusion construct activated firefly luciferase expression under the control of a multimerized GAL4 upstream activation sequence (UAS). The signal of the emitted luminescence was recorded by the FLIPR^TETRA. This allowed for specific detection of ligand-induced activation of the GR and therefore for the identification of compounds with agonistic properties. The GAL4/UAS reporter was premixed with a vector that constitutively expressed Renilla luciferase, which served as an internal positive control for transfection efficiency.
The complete culture medium for the assay was: • DMEM F-12 (1:1) MIXTURE (LONZA cat. N°: BE04-687F/U1) 500 mL • 5 mL of 100 mM Sodium Pyruvate (LONZA cat. N°: BE12-115E) • 25 mL of 7.5% Sodium Bicarbonate (LONZA cat. N° BE17-613E) • 6.5 mL of 1 M Hepes (LONZA cat. N°: BE17-737E) • 5 mL of 100× Penicillin/Streptomycin (LONZA cat. N° DE17-602E) • 50 mL of Fetal Bovine Serum (Euroclone cat. N° ECS 0180L) • 0.25 mL of 10 mg/mL Puromycin (InvivoGen cat.: ant-pr-1) • 0.5 mL of 100 mg/mL Zeocin (InvivoGen cat.: ant-zn-1)
Cryo-preserved CHO-Gal4/GR cells were suspended in complete medium and 5000 cells/25 μl/well were seeded into the wells of 384-well polystyrene assay plates (Thermo Scientific, cat. #4332) and cultured at 37° C., 5% CO2 and 95% humidity. After 24 hours growth medium was carefully removed and replaced by 30 μl Opti-MEM (GIBCO, cat. #31985062) as assay buffer. To test the compounds an 8-point half-log compound dilution curve was generated in 100% DMSO starting from a 2 mM stock and compounds were then diluted 1:50 in Opti-MEM. 10 μl of compounds were then added to the wells containing 30 μl Opti-MEM resulting in a final assay concentration range from 10 μM to 0.003 μM in 0.5% DMSO. Compounds were tested at 8 concentrations in quadruplicate data points.
(In general: A reporter such as luciferase makes a cellular process visible.)

`Cc1nnc2n1-c1c(cc(F)c(-c3cc(C#N)cc4[nH]ccc34)c1C(F)(F)F)NC2(C)C` [Example 479, 4-[7-Fluoro-1,4,4-trimethyl-9-(trifluoromethyl)-5H-[1,2,4]triazolo[4,3-a]quinoxalin-8-yl]-1H-indole-6-carbonitrile] displayed an IC50 or EC50 (agonist or antagonist mode not specified) of 0.1 to 1 µM.
Then `CCc1c(-c2cc(F)cc3c(C)c[nH]c23)c(F)cc2c1-n1c(C)nnc1C(C)(C)N2` [Example 47, 9-Ethyl-7-fluoro-8-(5-fluoro-3-methyl-1H-indol-7-yl)-1,4,4-trimethyl-5H-[1,2,4]triazolo[4,3-a]quinoxaline], with below 0.1 µM.
With `COc1cc2c(c(F)c1-c1cccc3[nH]ccc13)-n1c(C)nnc1C(C)(C)N2` [Example 256, 9-Fluoro-8-(1H-indol-4-yl)-7-methoxy-1,4,4-trimethyl-5H-[1,2,4]triazolo[4,3-a]quinoxaline] the figure was 1 to 15 µM.
With `Cc1c(-c2cc(F)cc3c(C)c[nH]c23)c(F)cc2c1-n1c(C)nnc1C(C)(C)N2` [Example 31, 7-fluoro-8-(5-fluoro-3-methyl-1H-indol-7-yl)-1,4,4,9-tetramethyl-4,5-dihydro-[1,2,4]triazolo[4,3-a]quinoxaline] the figure was below 0.1 µM; with `CCS(=O)(=O)n1ccc2c(-c3c(F)cc4c(c3C(F)(F)F)-n3c(C)nnc3C(C)(C)N4)cccc21` [Example 455, 8-[1-(Ethylsulfonyl)-1H-indol-4-yl]-7-fluoro-1,4,4-trimethyl-9-(trifluoromethyl)-5H-[1,2,4]triazolo[4,3-a]quinoxaline], below 0.1 µM; with `CC(=O)n1ccc2c(-c3c(F)cc4c(c3F)-n3c(C)nnc3C(C)(C)N4)cc(F)cc21` [Example 4, 1-(4-(7,9-difluoro-1,4,4-trimethyl-4,5-dihydro-[1,2,4]triazolo[4,3-a]quinoxalin-8-yl)-6-fluoro-1H-indol-1-yl)ethanone], below 0.1 µM.
With `CC#Cc1c[nH]c2c(-c3c(F)cc4c(c3C)-n3c(C)nnc3C(C)(C)N4)cccc12` [Example 28, 7-fluoro-1,4,4,9-tetramethyl-8-(3-(prop-1-yn-1-yl)-1H-indol-7-yl)-4,5-dihydro-[1,2,4]triazolo[4,3-a]quinoxaline], the IC50 or EC50 (agonist or antagonist mode not specified) is below 0.1 µM.
For `COCCn1ccc2c(-c3c(OC)cc4c(c3C)-n3c(C)nnc3C(C)(C)N4)cccc21` [Example 344, 7-Methoxy-8-[1-(2-methoxy-ethyl)-1H-indol-4-yl]-1,4,4,9-tetramethyl-5H-[1,2,4]triazolo[4,3-a] quinoxaline], the IC50 or EC50 (agonist or antagonist mode not specified) lay within 1 to 15 µM.
Then `COCCn1ncc2c(-c3c(F)cc4c(c3F)-n3c(C)nnc3C(C)(C)N4)cccc21` [Example 233, 7,9-Difluoro-8-[1-(2-methoxy-ethyl)-1H-indazol-4-yl]-1,4,4-trimethyl-5H-[1,2,4]triazolo[4,3-a]quinoxaline], with 0.1 to 1 µM.
Then `Cc1c[nH]c2c(-c3c(OC(F)F)cc4c(c3F)-n3c(C)nnc3C(C)(C)N4)cccc12` [Example 282, 7-(Difluoro-methoxy)-9-fluoro-1,4,4-trimethyl-8-(3-methyl-1H-indol-7-yl)-5H-[1,2,4]triazolo[4,3-a]quinoxaline], with 0.1 to 1 µM; and `COc1c(-c2cccc3c2ccn3C(=O)OC(C)(C)C)c(F)cc2c1-n1c(C)nnc1C(C)(C)N2` [Example 260, 4-(7-Fluoro-9-methoxy-1,4,4-trimethyl-5H-[1,2,4]triazolo[4,3-a]quinoxalin-8-yl)-1H-indole-1-carboxylic acid tert-butyl ester], with 0.1 to 1 µM; and `COc1c(-c2cccc3c2ccn3S(C)(=O)=O)c(F)cc2c1-n1c(C)nnc1C(C)(C)N2` [Example 248, 7-Fluoro-9-methoxy-1,4,4-trimethyl-8-(1-methylsulfonyl-1H-indol-4-yl)-5H-[1,2,4]triazolo[4,3-a]quinoxaline], with 0.1 to 1 µM.
Then `Cc1nnc2n1-c1c(ccc(-c3cc(F)cc4c3ccn4S(C)(=O)=O)c1C(F)(F)F)NC2(C)C` [Example 499, 8-(6-Fluoro-1-methylsulfonyl-1H-indol-4-yl)-1,4,4-trimethyl-9-(trifluoromethyl)-5H-[1,2,4]triazolo[4,3-a]quinoxaline], with 0.1 to 1 µM; and `Cc1nnc2n1-c1c(cc(F)c(-c3cc(F)cc4[nH]ccc34)c1C(F)F)NC2(C)C` [Example 466, 9-(Difluoro-methyl)-7-fluoro-8-(6-fluoro-1H-indol-4-yl)-1,4,4-trimethyl-5H-[1,2,4]triazolo [4,3-a]quinoxaline], with below 0.1 µM.
As to `Cc1c(-c2cccc3c2ccn3C)c(Cl)cc2c1-n1c(C)nnc1C(C)(C)N2` [Example 488, 7-Chloro-1,4,4,9-tetramethyl-8-(1-methyl-1H-indol-4-yl)-5H-[1,2,4]triazolo[4,3-a]quinoxaline], the IC50 or EC50 (agonist or antagonist mode not specified) is 0.1 to 1 µM.
`Cc1c(-c2cc(F)cc3c2cnn3S(C)(=O)=O)c(F)cc2c1-n1c(C)nnc1C(C)(C)N2` [Example 279, 7-Fluoro-8-(6-fluoro-1-methylsulfonyl-1H-indazol-4-yl)-1,4,4,9-tetramethyl-5H-[1,2,4]triazolo[4,3-a]quinoxaline]: the IC50 or EC50 (agonist or antagonist mode not specified) is below 0.1 µM.
In the case of `Cc1nnc2n1-c1c(ccc(-c3cccc4c3ccn4S(C)(=O)=O)c1C(F)(F)F)NC2(C)C` [Example 498, 1,4,4-Trimethyl-8-(1-methylsulfonyl-1H-indol-4-yl)-9-(trifluoromethyl)-5H-[1,2,4]triazolo[4,3-a]quinoxaline], the IC50 or EC50 (agonist or antagonist mode not specified) was 0.1 to 1 µM.
Then `COc1cc2c(c(F)c1-c1cccc3c(C)c[nH]c13)-n1c(C)nnc1C(C)(C)N2` [Example 266, 9-Fluoro-7-methoxy-1,4,4-trimethyl-8-(3-methyl-1H-indol-7-yl)-5H-[1,2,4]triazolo[4,3-a]quinoxaline], with 0.1 to 1 µM.
`COCCn1c(C(F)(F)F)cc2c(-c3c(F)cc4c(c3F)-n3c(C)nnc3C(C)(C)N4)cccc21` [Example 289, 7,9-Difluoro-8-[1-(2-methoxy-ethyl)-2-(trifluoromethyl)-1H-indol-4-yl]-1,4,4-trimethyl-5H-[1,2,4]triazolo[4,3-a]quinoxaline] returned an IC50 or EC50 (agonist or antagonist mode not specified) of 1 to 15 µM.
Take `Cc1nnc2n1-c1c(cc(F)c(-c3cccc4c3cnn4C)c1C(F)F)NC2(C)C` [Example 294, 9-(Difluoro-methyl)-7-fluoro-1,4,4-trimethyl-8-(1-methyl-1H-indazol-4-yl)-5H-[1,2,4]triazolo[4,3-a]quinoxaline]: the IC50 or EC50 (agonist or antagonist mode not specified) is below 0.1 µM.
Then `Cc1c(-c2cc(F)cc3c(C)c[nH]c23)c(OC(F)(F)F)cc2c1-n1c(C)nnc1C(C)(C)N2` [Example 406, 8-(5-Fluoro-3-methyl-1H-indol-7-yl)-1,4,4,9-tetramethyl-7-(trifluoromethyloxy)-5H-[1,2,4]triazolo[4,3-a]quinoxaline], with 0.1 to 1 µM.

Source of the values: patent US12110293B2, “Substituted triazolo quinoxaline derivatives” (GRÜNENTHAL GMBH, priority 2018, dated 2024).
